Experiments:
[1] = target: 5-hydroxytryptamine receptor 4 (Homo sapiens, UniProt Q13639); assay: Inhibitory constant for human cloned 5-HT4 receptor
[2] = Half-life in human; type: ADME
[3] = Bioavailability in rat; type: ADME, organism-based; settings: in vivo
in vivo [4] = settings: rat
[5] = Volume of distribution in dog (n=7; dose 0.25 mg/kg iv or 0.5 mg/kg po); settings: in vivo
in vivo [6] = settings: dog, plasma, iv, 0.25 mg/kg
[7] = Time taken for half of the concentration to degrade upon intravenous administration (n=7; dose 0.25 mg/kg iv); settings: dog, in vivo
[8] = (§1) Bioavailability in dog (dose 0.25 mg/kg i.v. and 0.5 mg/kg p.o.); settings: in vivo, po
Histamine H1 receptor = Histamine H1 receptor (Rattus norvegicus, UniProt P31390)
[9] = Volume of distribution in dog (n=8; dose 0.25 mg/kg iv or 0.5 mg/kg po); type: ADME, organism-based, Canis lupus familiaris; settings: in vivo, read-out: Vz
[10] = Time taken for half of the concentration to degrade upon intravenous administration (n=8; dose 0.25 mg/kg iv); type: ADME, organism-based, Canis lupus familiaris; set-up: dose 0.25 mg/kg, route intravenous; settings: dog, in vivo
[11] = as §1; type: ADME, organism-based, Canis lupus familiaris; settings: in vivo, po
[12] = Plasma clearance in dog (n=8; dose 0.25 mg/kg iv or 0.5 mg/kg po); type: ADME, organism-based, Canis lupus familiaris
[13] = Time taken for half of the concentration to degrade upon intravenous administration (n=12; dose 0.25 mg/kg iv); settings: dog, in vivo
in vivo [14] = settings: dog, plasma, iv, 0.25 mg/kg; remark: listed apart in the source
[15] = Intrinsic clearance of compound in dog liver microsomes
[16] = Percentage bioavailability (n=12; dose 0.25 mg/kg iv or 0.5 mg/kg po); type: ADME, organism-based, Canis lupus familiaris; settings: dog, in vivo
[17] = Volume of distribution in dog (n=12; dose 0.25 mg/kg iv or 0.5 mg/kg po); settings: in vivo
[18] = Intrinsic clearance of compound in human liver microsomes
[19] = Time taken for half of the concentration to degrade upon oral administration; type: ADME, organism-based, Canis lupus familiaris; settings: dog, in vivo
[20] = Time taken for half of the concentration to degrade upon oral administration (n=7; 0.5 mg/kg po); type: ADME, organism-based, Canis lupus familiaris; set-up: dose 0.5 mg/kg, route oral; settings: dog, in vivo

Sequence of 5-hydroxytryptamine receptor 4 (Q13639 whole entry): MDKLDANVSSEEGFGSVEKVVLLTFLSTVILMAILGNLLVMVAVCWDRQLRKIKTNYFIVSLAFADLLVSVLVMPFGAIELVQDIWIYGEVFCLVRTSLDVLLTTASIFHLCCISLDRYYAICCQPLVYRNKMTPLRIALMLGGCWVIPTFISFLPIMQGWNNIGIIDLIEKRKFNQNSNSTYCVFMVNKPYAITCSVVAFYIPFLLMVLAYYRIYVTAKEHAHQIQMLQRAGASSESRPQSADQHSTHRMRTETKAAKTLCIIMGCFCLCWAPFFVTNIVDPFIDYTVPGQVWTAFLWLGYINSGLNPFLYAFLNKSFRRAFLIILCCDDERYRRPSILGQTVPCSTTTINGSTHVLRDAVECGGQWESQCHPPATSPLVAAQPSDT
Sequence of Histamine H1 receptor (P31390 whole entry): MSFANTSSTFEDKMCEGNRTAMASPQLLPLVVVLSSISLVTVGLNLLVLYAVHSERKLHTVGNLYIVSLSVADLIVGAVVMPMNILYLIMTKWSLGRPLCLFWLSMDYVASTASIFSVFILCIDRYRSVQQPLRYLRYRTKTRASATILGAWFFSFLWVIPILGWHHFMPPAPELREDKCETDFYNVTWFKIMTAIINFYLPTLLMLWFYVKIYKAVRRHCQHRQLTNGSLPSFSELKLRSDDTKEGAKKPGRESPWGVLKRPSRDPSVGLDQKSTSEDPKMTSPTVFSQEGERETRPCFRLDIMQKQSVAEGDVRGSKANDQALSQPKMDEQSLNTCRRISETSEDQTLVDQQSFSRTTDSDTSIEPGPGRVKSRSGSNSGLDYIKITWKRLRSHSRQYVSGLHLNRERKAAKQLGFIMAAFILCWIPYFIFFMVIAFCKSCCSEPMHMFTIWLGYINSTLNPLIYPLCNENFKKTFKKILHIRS

Ki [1] [nM]	Vd [5] [L/kg]	half-life [7] [h]	bioavailability [8] [%]	SMILES	other results
0.0316				CCCN1CCN(S(=O)(=O)CCCN2CCC(CNC(=O)c3cccc4c3OCCO4)CC2)CC1	
0.794				CCCCN1CCC(CNC(=O)c2cccc3c2OCCO3)CC1	half-life [2]: 60 h; bioavailability [3]: 18%; half-life (in vivo [4]): < 1 h
0.126				CC(C)S(=O)(=O)N1CCN(S(=O)(=O)CCCN2CCC(CNC(=O)c3cccc4c3OCCO4)CC2)CC1	
0.0501				O=C(NCC1CCN(CCCS(=O)(=O)N2CCN(c3ccc(F)cc3)CC2)CC1)c1cccc2c1OCCO2	
0.0251				O=C(NCC1CCN(CCCS(=O)(=O)N2CCC3(CCCC3)CC2)CC1)c1cccc2c1OCCO2	
0.251	0.3	0.7	65	O=C(NCC1CCN(CCCS(=O)(=O)N2CCN(c3ncccn3)CC2)CC1)c1cccc2c1OCCO2	clearance (in vivo [6]): 5 mL/min/kg
0.251				CN1CCN(S(=O)(=O)CCCN2CCC(CNC(=O)c3cccc4c3OCCO4)CC2)CC1	IC50 (Histamine H1 receptor): 100 nM
0.0501	3.6	3.1	94	CCN1CCN(S(=O)(=O)CCCN2CCC(CNC(=O)c3cccc4c3OCCO4)CC2)CC1	
0.0316				O=C(NCC1CCN(CCCS(=O)(=O)N2CCN(S(=O)(=O)c3ccc(F)cc3)CC2)CC1)c1cccc2c1OCCO2	
0.158				O=C(NCC1CCN(CCCS(=O)(=O)N2CCN(Cc3cccnc3)CC2)CC1)c1cccc2c1OCCO2	
0.158				O=C(NCC1CCN(CCCS(=O)(=O)N2CCNCC2)CC1)c1cccc2c1OCCO2	Vd [9]: 34 L/kg; half-life [10]: 37 h; bioavailability [11]: 33%; clearance [12]: 11 mL/min/kg
0.1	0.7	0.7	82	CCCS(=O)(=O)N1CCN(S(=O)(=O)CCCN2CCC(CNC(=O)c3cccc4c3OCCO4)CC2)CC1	clearance (in vivo [6]): 12 mL/min/kg
0.0794				O=C(NCC1CCN(CCCS(=O)(=O)N2CCN(S(=O)(=O)N3CCCC3)CC2)CC1)c1cccc2c1OCCO2	
0.0251				CCC(C)N1CCN(S(=O)(=O)CCCN2CCC(CNC(=O)c3cccc4c3OCCO4)CC2)CC1 (configuration not stated)	
0.2				O=C(NCC1CCN(CCCS(=O)(=O)N2CCCCC2)CC1)c1cccc2c1OCCO2	
0.398			76	O=C(NCC1CCN(CCCS(=O)(=O)N2CCOCC2)CC1)c1cccc2c1OCCO2	half-life [13]: 1 h; clearance (in vivo [14]): 7 mL/min/kg; Vd [17]: 1.6 L/kg
0.0316	3.6	3	72	CC(C)N1CCN(S(=O)(=O)CCCN2CCC(CNC(=O)c3cccc4c3OCCO4)CC2)CC1	clearance (in vivo [6]): 14 mL/min/kg
0.126	1.5	0.7	100	CC1(C)CCN(S(=O)(=O)CCCN2CCC(CNC(=O)c3cccc4c3OCCO4)CC2)CC1	clearance (in vivo [6]): 27 mL/min/kg
0.1				O=C(NCC1CCN(CCCS(=O)(=O)N2CCN(C(=O)c3ccco3)CC2)CC1)c1cccc2c1OCCO2	Vd [9]: 0.2 L/kg; half-life [10]: 1 h; bioavailability [11]: 64%; clearance [12]: 2 mL/min/kg
0.0158				O=C(NCC1CCN(CCCS(=O)(=O)N2CCN(C3CCCC3)CC2)CC1)c1cccc2c1OCCO2	Vd [9]: 9.3 L/kg; half-life [10]: 2.9 h; bioavailability [11]: 42%; clearance [12]: 37 mL/min/kg
0.126	0.7	1.3	51	CC(=O)N1CCN(S(=O)(=O)CCCN2CCC(CNC(=O)c3cccc4c3OCCO4)CC2)CC1	clearance (in vivo [6]): 6 mL/min/kg; half-life [19]: 4.6 h
0.0631	1.4	0.5	15	CCCC1CCN(S(=O)(=O)CCCN2CCC(CNC(=O)c3cccc4c3OCCO4)CC2)CC1	clearance (in vivo [6]): 33 mL/min/kg
0.316	0.3	1.2	90	CS(=O)(=O)N1CCN(S(=O)(=O)CCCN2CCC(CNC(=O)c3cccc4c3OCCO4)CC2)CC1	half-life [20]: 3.6 h

SMILES	Ki [1] [nM]	Vd [5] [L/kg]	half-life [7] [h]	bioavailability [8] [%]	other results
CCCCN1CCC(CNC(=O)c2c3n(c4ccccc24)CCCO3)CC1 [PIBOSEROD]	0.251				half-life [13]: 7.1 h; clearance (in vivo [14]): 8 mL/min/kg; microsomal CLint [15]: 4 µL/min/mg; bioavailability [16]: 71%; Vd [17]: 5 L/kg; microsomal CLint [18]: 5 µL/min/mg

From ChEMBL document CHEMBL1142047, “Identification of a 5-HT4 receptor antagonist clinical candidate through side-chain modification” (Bioorg Med Chem Lett, 2005)
